What was measured:
Plasmodium falciparum [1] = assay: NOVARTIS: Inhibition of Plasmodium falciparum W2 (drug-resistant) proliferation in erythrocyte-based infection assay; format: functional, organism-based; settings: Plasmodium falciparum, W2; read-out: EC50
Plasmodium falciparum [2] = assay: NOVARTIS: Inhibition of Plasmodium falciparum 3D7 (drug-susceptible) proliferation in erythrocyte-based infection assay; format: functional, organism-based; settings: Plasmodium falciparum, 3D7
[3] = NOVARTIS: Cytotoxicity against human hepatocellular carcinoma cell line (Huh7); format: toxicity, cell-based, Huh-7; settings: Huh7 cells (hepatocellular carcinoma cell line)

| SMILES | EC50 (Plasmodium falciparum [1]) | EC50 (Plasmodium falciparum [2]) | CC50 [3] |
| --- | --- | --- | --- |
| CCOC(=O)c1c(NC(=O)CSc2nnc(CNC(=O)c3cccs3)n2-c2cccc(Cl)c2)sc2c1CCCC2 | > 1240 nM | > 1140 nM | > 10000 nM |
| CCCCCCN(C(=O)c1ccc2ccccc2c1)C(CC)c1nc2ccccc2c(=O)n1-c1ccccc1OC (stereo unspecified) | 631 nM | 641 nM | > 10000 nM |
| CN1CCc2c(sc3c2C(=O)NC(c2ccc(O)cc2)N3)C1 (stereo unspecified) | 378 nM | 755 nM | 33600 nM |
| C=CCn1nc(C(=O)N2CCCC2)c2c1CCC(N1CCCCCC1)C2 (stereo unspecified) | 39.8 nM | 772 nM | > 10000 nM |
| OC(CN1CCN(Cc2ccccc2)CC1)Cn1c2ccc(Br)cc2c2cc(Br)ccc21 (stereo unspecified) | 57.3 nM | 296 nM | 29000 nM |
| CCCOC(=O)C1=C(C)NC2=C(C(=O)CC(c3ccccc3)C2)C1c1ccc(Cl)cc1Cl (stereo unspecified) | 109 nM | 484 nM | > 100000 nM |
| Cc1cccc(NC(=O)c2ccc(N3CC4CC(C3)c3cccc(=O)n3C4)c(NC(=O)Cc3c(F)cccc3Cl)c2)n1 (stereo unspecified) | 197 nM | > 1450 nM | > 10000 nM |
| CCN1/C(=C/c2sc3ccc(OC)cc3[n+]2CC)C=Cc2cc(C)ccc21 | 508 nM | 431 nM | > 10000 nM |
| Cc1ccc(-n2nnnc2SCc2nc(-c3cccc([N+](=O)[O-])c3)no2)c(C)c1 | 1850 nM | > 4690 nM | > 100000 nM |
| C=C[C@H]1CN2CC[C@H]1C[C@H]2[C@H](OC(=O)CC)c1ccnc2ccccc12 | 166 nM | 364 nM | > 10000 nM |
| CC1CCC2C(C)C(=O)OC3OC(C)C4CC1C32OO4 (stereo unspecified) | 7.62 nM | 19.1 nM | > 10000 nM |
| COc1ccc(-n2cc(-c3ccccc3)[n+]3c2SCC3)cc1 | 647 nM | 527 nM | > 10000 nM |
| CC1(C)CC(N=c2cc(-c3ccccc3)oc3ccc(Cl)cc23)CC(C)(C)N1 | 609 nM | 251 nM | 9600 nM |
| CCc1cccc(NS(=O)(=O)c2ccc3[nH]c(=O)c(=O)[nH]c3c2)c1 | > 1450 nM | > 1040 nM | > 10000 nM |
| COc1ccc(C2C(C(=O)c3ccccc3)=C(O)C(=O)N2c2cccc(Cl)c2)c(OC)c1 (stereo unspecified) | 2590 nM | > 12500 nM | > 100000 nM |
| CC(C)C[C@H](NC(=O)N1CCOCC1)C(=O)N[C@H](/C=C/S(=O)(=O)c1ccccc1)CCc1ccccc1 | 37.7 nM | 210 nM | 48800 nM |
| Cc1ccc(NC2=C(N3CCCCC3)C(=O)c3ccccc3C2=O)cc1 | 77.5 nM | 131 nM | 18500 nM |
| CCCCCCCC(=O)N1CCN(CCN(Cc2ccc(F)cc2)C(=O)c2c(-c3c(F)cccc3Cl)noc2C)CC1 | 1660 nM | 1760 nM | > 100000 nM |
| O=C1c2ccccc2C(=O)C12C(c1ccc(Br)cc1)N(c1ccccc1)C1(C(=O)c3ccccc3C1=O)C2c1ccc(Br)cc1 (stereo unspecified) | > 914 nM | 510 nM | > 10000 nM |
| CC1(C)N=C(N)N=C(N)N1c1ccccc1 | 988 nM | 174 nM | > 83700 nM |
| CCNc1nc(NC(C)CC)nc(ON=C(C)C)n1 (stereo unspecified) | 118 nM | 441 nM | > 100000 nM |
| CN(CCCNc1ccnc2cc(Cl)ccc12)C(=O)c1cccc(F)c1 | 490 nM | 739 nM | > 11500 nM |
| c1ccc(Cn2nnnc2CN2CCN(C(c3ccccc3)c3ccccc3)CC2)cc1 | 1670 nM | 2870 nM | > 100000 nM |
| CC(C)C(=O)NCCCCNc1ccnc2cc(Cl)ccc12 | < 18.5 nM | 1600 nM | > 10000 nM |
| CCOC(=O)C1=C(c2ccccc2)N=c2sc(=Cc3ccccc3O)c(=O)n2C1c1c(OC)ccc2ccccc12 (stereo unspecified) | 271 nM | 2320 nM | > 100000 nM |
| COc1ccc(C2CC(=O)C3=C(C2)NC(C)=C(C(=O)OC2CCCC2)C3c2ccccc2Cl)cc1OC (stereo unspecified) | 7.38 nM | 55.8 nM | > 100000 nM |
| C=C1C=CN(Cc2ccccc2)c2ccc(OC)cc21 | 330 nM | 451 nM | > 10000 nM |

From ChEMBL document CHEMBL1156829 (Proc Natl Acad Sci U S A, 2008)
